Data set [1] has as its system hTAU mice. Briefly: Nesting activity assay in e-PES injected hTAU mice. The class given is in vivo, mouse. The procedure: FIG. 21A: provides photographs of representative nests constructed by the mice; FIG. 21B and FIG. 21D provide bar graphs showing nestlet score for 4-month old (FIG. 21B) and 6-month old (FIG. 21D) mice; FIG. 21C and FIG. 21E provide bar graphs showing untorn nestlet weight for 4-month old (FIG. 21C) and 6-month old (FIG. 21E) mice.
Nesting activity was assessed using a modified scoring criteria to rate the quality of nest construction and the amount of torn nestlet material. Following the nocturnal period, untorn nesting material was weighed, and nests were photographed for scoring on a 0-7 ordinal scale modified from published criteria. Nestlet scores and weights are shown as mean+SEM; *p<0.05 versus controls. Preeclampsia serum was used to observe significant effects in hTAU mice without waiting for 9-12 months of age.
(§1) 100 μL e-PES (early-onset preeclampsia serum) was injected in 10-12 weeks old non-pregnant female hTAU mice. The i.p. injection was performed once a week for 4 weeks. Trehalose treatment (2 g/kg/week) or saline (100 μL/week) was initiated after completion of 4 weeks of e-PES injection cycle. At the end of the trehalose treatment, a group of mice (n=5 for each group) was sacrificed after 2 weeks of resting biological activity (FIG. 18).
(§2) Another two groups were kept to assess their behavioral and brain pathological outcomes (i.e., nesting behavior and/or sensory motor coordination).

The conditions of data set [2]: for humans, by the FDA, based on safety studies in mice, rats and rabbits, including during pregnancy; cited from earlier work.
In data set [3] the test system is hTAU transgenic mouse model. Briefly: Preeclampsia serum-induced onset of AD features in the hTAU transgenic mouse model (Example 7). It counts as in vivo. The conditions noted are these: weekly trehalose (2 mg/kg) from 2 months (60 day old mice) for one month; preeclampsia serum injected at 1 month. As to the method:
The efficacy with which trehalose inhibits the onset of Alzheimer's disease (AD) features was assessed using the hTAU transgenic mouse model at ages of 3, 6, 9, and 12 months. The onset of AD features were preempted by the administration of serum obtained from pregnant women with normal pregnancy or preeclampsia.

Data set [4] deals with human trophoblasts. Description: AD serum-induced protein aggregation in primary human trophoblasts, ProteoStat staining. It counts as cell-based. The conditions noted are these: 50 mM trehalose, 10% AD patient serum, 72 hours. As to the method:
(§3) Primary human trophoblasts and SHSY cells were cultured and washed with serum-free media at 70% confluency. The cells were then cultured with 10% serum samples from AD patients for 72 hours (trophoblasts) and 24 hours (neuronal cells), respectively, in the absence or presence of 50 mM trehalose. Cells were stained with ProteoStat dye and evaluated for accumulation of protein aggregates.

Data set [5] relates to SHSY neuronal cells. Description: AD serum-induced protein aggregation in SHSY neuronal cells, ProteoStat staining. It counts as cell-based. The following applies: 50 mM trehalose, 10% AD patient serum, 24 hours. The procedure: as §3
The test system of data set [6] is hTAU mice. Briefly: Ledge assay (sensorimotor coordination) in e-PES injected hTAU mice. The class given is in vivo, mouse. The following applies: for falling off of the ledge / mobility: e-PES+trehalose mice.
From the text: FIGS. 22A-22C provide the results of sensory-motor coordination studies utilizing a ledge assay. hTAU mice were compared to hTAU mice injected with e-PES at 10-12 weeks age (n=5) with or without trehalose administration. […] FIG. 22C provides a bar graph comparing time spent on the ledge (seconds) for each subset of mice (i.e., hTAU control, PES 49, and PES 49+trehalose).
Sensorimotor coordination deficits were detected by the ledge assay. In the ledge assay, mice were placed on the elevated cage's ledge at a height of 35 cm and width of 0.8 cm and their movement was monitored. Each mouse was tested three times (approximately 20 seconds) and scored from 0 to 3 depending on the severity of deficits.
as §1, §2

The test system of data set [7] is hTAU mice. Briefly: Brain pathology (AT180 hyperphosphorylated Tau staining of mPFC) in e-PES injected hTAU mice (Example 8). The class given is in vivo, mouse. The conditions noted are these: trehalose 2 g/kg/week i.p. for 4 weeks after 4 weeks of e-PES injection. The procedure: 10-12 week old non-pregnant female hTAU mice were injected with e-PE serum (100 μL/week for 4 weeks) followed by treatment (i.p injection) with either saline (100 μL /week) or Trehalose (2 g/kg/week) for 4 weeks, followed by 2 weeks of resting period prior to biological assessments. Medial prefrontal cortex (mPFC) was stained for hyperphosphorylated Tau (using antibody AT180 which detects Tau hyperphosphorylation at T231 & S235). FIG: 19A: Confocal images stained with AT180 are shown that correspond to the mPFC of control (upper), e-PES (middle), and e-PES+Trehalose (bottom), with quantification data in mPFC being present at right panels; inset images are the high magnification image of the selected area; FIG. 19B: provides a bar graph showing the number of AT180 positive cells/0.1 mm^2 in hTAU control, PES 49, and PES 49+trehalose treated mice.
10-12 weeks old non-pregnant female hTAU mice were injected with e-PE serum (100 μL/week for 4 weeks) followed by treatment (i.p injection) with either saline (100 μL/week) or Trehalose (2 g/kg/week) for 4 weeks, followed by 8-10 weeks of resting period prior to biological assessment. Medial prefrontal cortex (mPFC) was stained for hyperphosphorylated Tau (using antibody AT180 which detects Tau hyperphosphorylation at T231 & S235). […]
Brain pathologies were evaluated in a group of mice at 4 and 6 months of age.

Setting [8] is: e-PES alone compared to control and e-PES+trehalose treated hTAU mice (n=5), 6 months.

Consider 1 molecule from US20240077500A1, “METHOD FOR THE DETECTION AND TREATMENT OF PROTEINOPATHIES” (Women & Infants Hospital of Rhode Island, priority 2021, published 2024).

In the case of `OC[C@H]1O[C@H](O[C@H]2O[C@H](CO)[C@@H](O)[C@H](O)[C@H]2O)[C@H](O)[C@@H](O)[C@@H]1O` [trehalose, (2R,2′R,3 S,3′S,4S,4′S,5R,5′R,6R,6′R)-6,6′-oxybis(2-(hydroxymethyl)tetrahydro-2H-pyran-3,4,5-triol)], the “nestlet score at 4 months of age” value in data set [1] (between control and indicated treatment groups, 4 month old hTAU mice) is on record as “no significant changes”. Also, the “nestlet score at 6 months of age” value in data set [1] (setting [8]) is “significantly lower nestlet scores”. The “untorn nestlet weight at 6 months of age” value in data set [1] (setting [8]) is “significantly greater untorn nestlet weights”. For the same molecule, the cognitive decline result in data set [1] (limited (4 weeks) treatment with trehalose, 2 g/kg/week) is recorded as “improved cognitive decline”. The safety status entry in data set [2] was “generally regarded as safe”. Besides, the “onset of AD features” value in data set [3] is given as “inhibited the onset of AD features”. Besides, the “AD serum-caused protein aggregation” value in data set [4] and in data set [5] was “could be inhibited” in each case. For the same molecule, the “falling off of the ledge / mobility” value in data set [6] is “immobile, not falling off”; in data set [6] (listed as Trehalose), “did not fall off of the ledge frequently”. Also, the motor activity result in data set [6] (trehalose 2 g/kg/week for 4 weeks after e-PES injection) was “could not restore motor activity completely”. For the same molecule, the sensorimotor coordination deficits result in data set [6] (trehalose 2 g/kg/week for 4 weeks after e-PES injection at 10-12 weeks of age) is “partially prevented”. The “time spent on the ledge” value in data set [6] (trehalose treated mice (n=5) compared to only e-PES treated mice) is “significantly more time on the ledge”. Moreover, the hTAU burden result in data set [7] is given as “reduced hTAU burdern”.
